Measurements as given in patent publication US8703106B2, “Chlorine dioxide treatment for biological tissue” (priority 2009, dated 2014).
Values joined by “and” are separate entries in the source; they are usually repeats but may differ in a detail not shown here. Equal values may be shown once.

Experiments:
bacteria in wounds = test: Pig wound model, chlorine dioxide with sonication (Example 5); format: in vivo; settings: 400 ppm solution, 8 x 15 min, plus three 4 min sonications at about 20 kHz, 40% duty cycle
Experimental: An experiment was performed to assess the efficacy of a combination therapy of chlorine dioxide administration and sonication on bacterial levels in wounds. The animal model was a pig. Sixteen wounds were introduced and inoculated with bacteria as described in Example 6. On Day 2, treatment was administered. There were control wounds that were not treated with either chlorine dioxide or ultrasound. Test wounds were treated with ultrasonic energy for 4 minutes, using a frequency of about 20 kHz, a 40% duty cycle and a range of power intensities up to 3.5 W/cm^2; each test wound received a total of three sonication treatments. Test wounds were treated with a 400 ppm chlorine dioxide solution applied to each wound in 8 separate, contiguous applications of 15 minutes duration each (total of 120 minutes of exposure to 400 ppm chlorine dioxide) and each application used a fresh specimen of the solution. Each treated wound received a total of three×4 minute sonication over the course of the 2 hours of chlorine dioxide treatment.
Wounds were biopsied after treatment as described in Example 4.

PA biofilm = test: Biofilm kill in protein-rich (FBS) environment (Example 3); format: cell-based, Pseudomonas aeruginosa; settings: for Log Reduction in Organism Count: PA
Experimental: (§1) Chlorine dioxide efficacy against biofilm in protein-rich environment A series of experiments were conducted to determine the effect of FBS on the kill of PA. MRSA and mixture PA/MRSA biofilms. Biofilms were grown as described in Example 1, Disks were immersed in 25 ml of FBS solution at double the target FBS concentration, and to that was added 25 ml of chlorine dioxide solution at double the target chlorine dioxide concentration. After the desired contact time, disks were removed from the treatment solutions, neutralized, and plated as described above.
(§2) Dosage is given both as the nominal dose based upon the initial chlorine dioxide concentration, and the actual dosage as estimated from the initial chlorine dioxide concentration and the decay relationships described above.
(§3) Columns 3-6 are measured data; columns 7-11 are calculated data. For K2 having a positive sign (such as Samples 20-21), it was assumed that there was insufficient FBS present to cause a material loss of chlorine dioxide. Therefore, for such samples, it was assumed that chlorine dioxide was unchanged over the time of the experiment FIG. 4 is a graph of the results.

mixed PA/MRSA biofilm = test: as above; format: cell-based, Pseudomonas aeruginosa and Staphylococcus aureus; settings: for Log Reduction in Organism Count: MRSA + PA
Experimental: as §1, §2, §3

[1] = Tooth whitening with multiple contiguous applications, Vita Classic Shade Guide (Example 7); design: species or system human; settings: for ΔSVU, Average: average of five teeth; for ΔSVU: nominal 200 ppm (actual 155 ppm) NaCMC gel, pH 5.0, individual teeth A-E, baseline C4
Excerpt: This study was designed to assess the efficacy on tooth whitening of two different regimens of multiple, contiguous applications of a 200 ppm chlorine dioxide gel. Five human extracted teeth (molars) were used in this study. Each tooth was sectioned twice: first at the tooth's cemento-enamel junction to remove the root portion of the tooth; then sectioned mesio-distally to separate the tooth into two, separate buccal and lingual halves. […] The sectioned teeth were then stained in concentrated black tea (cooled to room temperature after brewing) until each tooth accumulated enough stain to be visually graded as “C4” (hut no lighter than “A4”) per the Vita Classic Shade Vision Guide.
After staining, the cut sides of each tooth were sealed with an acrylic polymer (i.e. acrylic-based nail polish). The tooth was then “split” or functionally “divided” into a left and right sides (the tooth was not physically split). To create “dividing line,” a narrow channel was first created down the center of the tooth (running from the occlusal to the gingival or cervical portion of the tooth) using a narrow tungsten carbide or diamond tip dental bur, thereby creating an approximately 0.5 to 1.5-mm deep by 1 to 1.5-mm wide channel on either the buccal or lingual enamel surface of the tooth segment. The channel was etched carefully with a 34-40% phosphoric acid dental etching gel preparation (being careful to confine the gel only to the enamel within the prepared channel). The etching gel was then removed by water rinsing, the Stir face was dried, and a thin, narrow band of enamel-dentin adhesive was then applied carefully only to the enamel within the narrow channel. The material was allowed to dry in ambient air for 1 minute then carefully dried with a gentle stream of compressed air for an additional 10 seconds. The enamel-dentin adhesive was subsequently cured by exposure to a visible light dental curing unit using actinic blue light at an approximate peak wavelength of 470 nm for multiple, 20 second curing increments. In order to fill in the channel and gradually build a “wall” or harrier to separate the left and right half of the lingual surface of the tooth, a thin, narrow layer or band of composite resin dental restorative material was added in several steps and cured with the dental visible blue-light curing unit.
The wall that was built up on each tooth prevents whitening agent applied on the left side of the tooth to migrate into the whitening agent that was applied on the right side of the tooth, and visa versa. In this way, it is possible to compare two different treatment regimens on the same tooth, thereby minimizing the biological diversity among different teeth that may affect whitening efficacy.
Two treatment regimens were tested, both using a nominal 200 ppm chlorine dioxide gel comprising sodium carboxymethylcellulose (NaCMC). The actual concentration of chlorine dioxide was measured and found to be 155 ppm; pH of the composition was 5.0. The general treatment protocol is as follows. […] The 60 ml syringe was used to store the gel during the assay, and for dispensing gel into a 10 ml plastic syringe. The gel in the 10 ml syringe was then dispensed directly onto the tooth section enamel surfaces as follows. At time zero, about 1 to 1.5 ml gel was dispensed onto the enamel surface of each tooth segment attached to the glass microscope slide. The thickness of the resulting gel layer was about 1.5 to 3.0 mm in depth. After dispensing the gel onto the tooth segments, the glass slide was placed in a plastic zippered bag, containing small strips of wet paper towel within the bag to maintain 100% humidity in the bag. The paper towel strips were positioned to eliminate any contact of the plastic bag with the tooth and gel surfaces.
Upon conclusion of a contact epidose, the glass slide was removed from the plastic bag, and the gel was carefully removed with an extra soft bristle toothbrush and a gentle stream of running tap water. […]

[2] = 30 minutes total exposure, Left: 2 × 15 minutes
[3] = 30 minutes total exposure, Right: 4 × 7.5 minutes
[4] = 60 minutes total exposure, Left: 4 × 15 minutes
[5] = 60 minutes total exposure, Right: 8 × 7.5 minutes

Structure (SMILES): [O][Cl+][O-] [ClO2, chlorine dioxide]
- bacterial counts in test wounds (bacteria in wounds; as a function of power intensity up to 3.5 W/cm^2): decrease significantly (multiple log reductions)
- bacterial kill in test wounds (bacteria in wounds; at 3.5 W/cm^2): substantially complete log kill
- corrected dose rate resulting in complete kill (PA biofilm; PA biofilm, with FBS): ≥ 2000 ppm-rain
- Log Reduction in Organism Count (PA biofilm; Sample 27, FBS 131 mg/mg ClO2, 15.0 min, initial 191 ppm, nominal 2865, corrected 2236 ppm-min): 7.1 log
- Log Reduction in Organism Count (PA biofilm; Sample 28, FBS 131 mg/mg ClO2, 40.0 min, initial 191 ppm, nominal 7640, corrected 5559 ppm-min): 7.1 log
- Log Reduction in Organism Count (PA biofilm; Sample 29, FBS 104 mg/mg ClO2, 15.0 min, initial 240 ppm, nominal and corrected 3600 ppm-min): 7.1 log
- Log Reduction in Organism Count (PA biofilm; Sample 30, FBS 104 mg/mg ClO2, 30.0 min, initial 240 ppm, nominal and corrected 7200 ppm-min): 7.1 log
- Log Reduction in Organism Count (PA biofilm; Sample 31, FBS 104 mg/mg ClO2, 60.0 min, initial 240 ppm, nominal and corrected 14400 ppm-min): 7.1 log
- Log Reduction in Organism Count (mixed PA/MRSA biofilm; Sample 17, FBS 131 mg/mg ClO2, 15.0 min, initial 191 ppm, nominal 2865, corrected 2236 ppm-min): 8.2 log
- Log Reduction in Organism Count (mixed PA/MRSA biofilm; Sample 18, FBS 131 mg/mg ClO2, 40.0 min, initial 191 ppm, nominal 7640, corrected 5559 ppm-min): 8.2 log
- Log Reduction in Organism Count (mixed PA/MRSA biofilm; Sample 19, FBS 104 mg/mg ClO2, 15.0 min, initial 240 ppm, nominal and corrected 3600 ppm-min): 8.2 log
- Log Reduction in Organism Count (mixed PA/MRSA biofilm; Sample 20, FBS 104 mg/mg ClO2, 30.0 min, initial 240 ppm, nominal and corrected 7200 ppm-min): 8.2 log
- Log Reduction in Organism Count (mixed PA/MRSA biofilm; Sample 21, FBS 104 mg/mg ClO2, 60.0 min, initial 240 ppm, nominal and corrected 14400 ppm-min): 8.2 log
- corrected dose rate resulting in complete kill (mixed PA/MRSA biofilm; mixed PA/MRSA biofilm, with FBS): ≥ 2000 ppm-rain
- ΔSVU, Average [1, 2]: 11.4 SVU
- ΔSVU [1, 2]: 12 SVU (3×) and 10 SVU and 11 SVU
- ΔSVU, Average [1, 3]: 12.6 SVU
- ΔSVU [1, 3]: 15 SVU and 12 SVU (4×)
- ΔSVU, Average [1, 4]: 11.8 SVU
- ΔSVU [1, 4]: 12 SVU (4×) and 11 SVU
- ΔSVU, Average [1, 5]: 13.6 SVU
- ΔSVU [1, 5]: 15 SVU (2×) and 14 SVU and 12 SVU (2×)
- improvement of tooth whitening, four applications compared to two applications ([1]; nominal dosage 6000 ppm-min (30 minutes × 200 ppm)): about 10%
- improvement of tooth whitening, eight applications over four applications ([1]; nominal dosage 12,000 ppm-min): about 15%
